Reference: PubChem BioAssay (NCI)
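Tested at 5 concentrations; 48 h exposure; 96-well plates; endpoints linearly interpolated, else capped at highest concentration. GI50 is the concentration that inhibits growth by half. At the TGI there is no net growth.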

How the values were obtained:
Experiment in all cases: NCI anticancer screen, dose series, 48 h
786-0 renal = tested on: 786-0 renal
A549 NSCLC = tested on: A549 NSCLC
ACHN renal = tested on: ACHN renal
BT-549 breast = tested on: BT-549 breast
CAKI-1 renal = tested on: CAKI-1 renal
CCRF-CEM leukemia = tested on: CCRF-CEM leukemia
COLO 205 colon = tested on: COLO 205 colon
DU-145 prostate = tested on: DU-145 prostate
EKVX NSCLC = tested on: EKVX NSCLC
HCC-2998 colon = tested on: HCC-2998 colon
HCT-116 colon = tested on: HCT-116 colon
HCT-15 colon = tested on: HCT-15 colon
HL-60(TB) leukemia = tested on: HL-60(TB) leukemia
HOP-62 NSCLC = tested on: HOP-62 NSCLC
HOP-92 NSCLC = tested on: HOP-92 NSCLC
HS 578T breast = tested on: HS 578T breast
HT29 colon = tested on: HT29 colon
IGROV1 ovarian = tested on: IGROV1 ovarian
K-562 leukemia = tested on: K-562 leukemia
KM12 colon = tested on: KM12 colon
M14 melanoma = tested on: M14 melanoma
MALME-3M melanoma = tested on: MALME-3M melanoma
MCF7 breast = tested on: MCF7 breast
MDA-MB-231 breast = tested on: MDA-MB-231 breast
MDA-MB-435 = tested on: MDA-MB-435
MOLT-4 leukemia = tested on: MOLT-4 leukemia
NCI-H226 lung = tested on: NCI-H226 lung
NCI-H23 lung = tested on: NCI-H23 lung
NCI-H460 lung = tested on: NCI-H460 lung
NCI-H522 lung = tested on: NCI-H522 lung
NCI/ADR-RES ovarian = tested on: NCI/ADR-RES ovarian
OVCAR-3 ovarian = tested on: OVCAR-3 ovarian
OVCAR-4 ovarian = tested on: OVCAR-4 ovarian
OVCAR-5 ovarian = tested on: OVCAR-5 ovarian
OVCAR-8 ovarian = tested on: OVCAR-8 ovarian
PC-3 prostate = tested on: PC-3 prostate
RPMI-8226 leukemia = tested on: RPMI-8226 leukemia
RXF 393 renal = tested on: RXF 393 renal
SF-268 CNS = tested on: SF-268 CNS
SF-295 CNS = tested on: SF-295 CNS
SF-539 CNS = tested on: SF-539 CNS
SK-MEL-2 melanoma = tested on: SK-MEL-2 melanoma
SK-MEL-28 melanoma = tested on: SK-MEL-28 melanoma
SK-MEL-5 melanoma = tested on: SK-MEL-5 melanoma
SK-OV-3 ovarian = tested on: SK-OV-3 ovarian
SN12C renal = tested on: SN12C renal
SNB-19 CNS = tested on: SNB-19 CNS
SR leukemia = tested on: SR leukemia
SW-620 colon = tested on: SW-620 colon
T-47D breast = tested on: T-47D breast
TK-10 renal = tested on: TK-10 renal
U251 CNS = tested on: U251 CNS
UACC-257 melanoma = tested on: UACC-257 melanoma
UACC-62 melanoma = tested on: UACC-62 melanoma
UO-31 renal = tested on: UO-31 renal

For `C=C1C[C@@]2(C)C(CC[C@]3(C)C2CC=C2C4CC(C)(C)C[C@@H](OC(=O)/C(C)=C\C)[C@]4(C(=O)O)CC[C@]23C)C(C)(C)C1=O` (stereo not given in full), which GI50 (786-0 renal) is on record?
The GI50 was 2000 nM.

What about the TGI (786-0 renal) of the same compound?
The TGI was 3.9 µM.

What about the GI50 (A549 NSCLC) of the same compound?
The GI50 was 3.8 µM.

And the TGI (A549 NSCLC)?
Its TGI is 25.8 µM.

What about the GI50 (ACHN renal) of the same compound?
Its GI50 is 2040 nM.

And the TGI (ACHN renal)?
The TGI was 4.12 µM.

What about the GI50 (BT-549 breast) of the same compound?
Its GI50 is 1910 nM.

And the TGI (BT-549 breast)?
The TGI was 3.68 µM.

And the GI50 (CAKI-1 renal)?
The GI50 was 1880 nM.

What about the TGI (CAKI-1 renal) of the same compound?
The TGI was 4.72 µM.

And the GI50 (CCRF-CEM leukemia)?
Its GI50 is 2110 nM.

What about the TGI (CCRF-CEM leukemia) of the same compound?
Its TGI is 22.9 µM.

And the GI50 (COLO 205 colon)?
Its GI50 is 3.59 µM.

And the TGI (COLO 205 colon)?
Its TGI is 17.6 µM.

What about the GI50 (DU-145 prostate) of the same compound?
The GI50 was 4.37 µM.

And the TGI (DU-145 prostate)?
The TGI was 16 µM.

And the GI50 (EKVX NSCLC)?
Its GI50 is 4.95 µM.

And the TGI (EKVX NSCLC)?
The TGI was 19 µM.

What about the GI50 (HCC-2998 colon) of the same compound?
Its GI50 is 2020 nM.

What about the TGI (HCC-2998 colon) of the same compound?
The TGI was 4.52 µM.

And the GI50 (HCT-116 colon)?
The GI50 was 1810 nM.

What about the TGI (HCT-116 colon) of the same compound?
Its TGI is 3.91 µM.

What about the GI50 (HCT-15 colon) of the same compound?
Its GI50 is 2230 nM.

What about the TGI (HCT-15 colon) of the same compound?
The TGI was 7.88 µM.

What about the GI50 (HL-60(TB) leukemia) of the same compound?
The GI50 was 2560 nM.

And the TGI (HL-60(TB) leukemia)?
The TGI was 7.08 µM.

What about the GI50 (HOP-62 NSCLC) of the same compound?
The GI50 was 3.43 µM.

And the TGI (HOP-62 NSCLC)?
Its TGI is 22.3 µM.

And the GI50 (HOP-92 NSCLC)?
The GI50 was 2340 nM.

What about the TGI (HOP-92 NSCLC) of the same compound?
The TGI was 7.15 µM.

What about the GI50 (HS 578T breast) of the same compound?
Its GI50 is 5.21 µM.

And the TGI (HS 578T breast)?
The TGI was 34.4 µM.

What about the GI50 (HT29 colon) of the same compound?
The GI50 was 2550 nM.

What about the TGI (HT29 colon) of the same compound?
Its TGI is 6.81 µM.

And the GI50 (IGROV1 ovarian)?
Its GI50 is 3.05 µM.

What about the TGI (IGROV1 ovarian) of the same compound?
Its TGI is 10.1 µM.

And the GI50 (K-562 leukemia)?
Its GI50 is 2450 nM.

And the TGI (K-562 leukemia)?
Its TGI is 11.5 µM.

And the GI50 (KM12 colon)?
Its GI50 is 3.84 µM.

And the TGI (KM12 colon)?
Its TGI is 15.9 µM.

What about the GI50 (M14 melanoma) of the same compound?
Its GI50 is 2390 nM.

What about the TGI (M14 melanoma) of the same compound?
The TGI was 8.49 µM.

What about the GI50 (MALME-3M melanoma) of the same compound?
The GI50 was 3.89 µM.

And the TGI (MALME-3M melanoma)?
The TGI was 15.6 µM.

And the GI50 (MCF7 breast)?
Its GI50 is 4.06 µM.

What about the TGI (MCF7 breast) of the same compound?
Its TGI is 19.2 µM.

And the GI50 (MDA-MB-231 breast)?
The GI50 was 5.96 µM.

And the TGI (MDA-MB-231 breast)?
Its TGI is 31.4 µM.

And the GI50 (MDA-MB-435)?
Its GI50 is 2830 nM.

And the TGI (MDA-MB-435)?
The TGI was 8.61 µM.

What about the GI50 (MOLT-4 leukemia) of the same compound?
The GI50 was 2910 nM.

And the TGI (MOLT-4 leukemia)?
The TGI was 24.8 µM.

What about the GI50 (NCI-H226 lung) of the same compound?
Its GI50 is 2230 nM.

And the TGI (NCI-H226 lung)?
Its TGI is 6.16 µM.

What about the GI50 (NCI-H23 lung) of the same compound?
Its GI50 is 2870 nM.

What about the TGI (NCI-H23 lung) of the same compound?
The TGI was 11.1 µM.

And the GI50 (NCI-H460 lung)?
Its GI50 is 3.22 µM.

And the TGI (NCI-H460 lung)?
Its TGI is 11 µM.

What about the GI50 (NCI-H522 lung) of the same compound?
The GI50 was 2760 nM.

And the TGI (NCI-H522 lung)?
Its TGI is 10.1 µM.

What about the GI50 (NCI/ADR-RES ovarian) of the same compound?
The GI50 was 3.45 µM.

And the TGI (NCI/ADR-RES ovarian)?
Its TGI is 33.4 µM.

And the GI50 (OVCAR-3 ovarian)?
Its GI50 is 2080 nM.

And the TGI (OVCAR-3 ovarian)?
The TGI was 5 µM.

What about the GI50 (OVCAR-4 ovarian) of the same compound?
Its GI50 is 4.76 µM.

What about the TGI (OVCAR-4 ovarian) of the same compound?
The TGI was 18.2 µM.

And the GI50 (OVCAR-5 ovarian)?
Its GI50 is 3.17 µM.

What about the TGI (OVCAR-5 ovarian) of the same compound?
The TGI was 10.3 µM.

And the GI50 (OVCAR-8 ovarian)?
The GI50 was 3.75 µM.

And the TGI (OVCAR-8 ovarian)?
The TGI was 27.5 µM.

What about the GI50 (PC-3 prostate) of the same compound?
Its GI50 is 1990 nM.

What about the TGI (PC-3 prostate) of the same compound?
The TGI was 5.94 µM.

What about the GI50 (RPMI-8226 leukemia) of the same compound?
The GI50 was 1420 nM.

What about the TGI (RPMI-8226 leukemia) of the same compound?
Its TGI is 5.69 µM.

What about the GI50 (RXF 393 renal) of the same compound?
The GI50 was 1760 nM.

And the TGI (RXF 393 renal)?
Its TGI is 3.57 µM.

What about the GI50 (SF-268 CNS) of the same compound?
Its GI50 is 6.76 µM.

What about the TGI (SF-268 CNS) of the same compound?
The TGI was 28 µM.

What about the GI50 (SF-295 CNS) of the same compound?
Its GI50 is 2950 nM.

What about the TGI (SF-295 CNS) of the same compound?
Its TGI is 11.1 µM.

And the GI50 (SF-539 CNS)?
Its GI50 is 2750 nM.

And the TGI (SF-539 CNS)?
The TGI was 8.55 µM.

And the GI50 (SK-MEL-2 melanoma)?
Its GI50 is 5.93 µM.

What about the TGI (SK-MEL-2 melanoma) of the same compound?
Its TGI is 24.4 µM.

What about the GI50 (SK-MEL-28 melanoma) of the same compound?
Its GI50 is 2320 nM.

And the TGI (SK-MEL-28 melanoma)?
The TGI was 5.44 µM.

What about the GI50 (SK-MEL-5 melanoma) of the same compound?
Its GI50 is 3.35 µM.

What about the TGI (SK-MEL-5 melanoma) of the same compound?
The TGI was 11.2 µM.

And the GI50 (SK-OV-3 ovarian)?
Its GI50 is 14.3 µM.

And the TGI (SK-OV-3 ovarian)?
The TGI was 33.4 µM.

What about the GI50 (SN12C renal) of the same compound?
The GI50 was 3.22 µM.

What about the TGI (SN12C renal) of the same compound?
Its TGI is 15.2 µM.

And the GI50 (SNB-19 CNS)?
The GI50 was 4.65 µM.

And the TGI (SNB-19 CNS)?
Its TGI is 17.4 µM.

And the GI50 (SR leukemia)?
Its GI50 is 1550 nM.

What about the TGI (SR leukemia) of the same compound?
Its TGI is 8.92 µM.

What about the GI50 (SW-620 colon) of the same compound?
Its GI50 is 2740 nM.

What about the TGI (SW-620 colon) of the same compound?
Its TGI is 9.31 µM.

And the GI50 (T-47D breast)?
The GI50 was 3.25 µM.

And the TGI (T-47D breast)?
The TGI was 15.2 µM.

What about the GI50 (TK-10 renal) of the same compound?
Its GI50 is 4.57 µM.

And the TGI (TK-10 renal)?
The TGI was 17.9 µM.

And the GI50 (U251 CNS)?
The GI50 was 2460 nM.

What about the TGI (U251 CNS) of the same compound?
Its TGI is 6.83 µM.

What about the GI50 (UACC-257 melanoma) of the same compound?
The GI50 was 3.53 µM.

And the TGI (UACC-257 melanoma)?
Its TGI is 16.4 µM.

And the GI50 (UACC-62 melanoma)?
The GI50 was 2930 nM.

What about the TGI (UACC-62 melanoma) of the same compound?
Its TGI is 10.3 µM.

And the GI50 (UO-31 renal)?
The GI50 was 1890 nM.

What about the TGI (UO-31 renal) of the same compound?
The TGI was 3.92 µM.
